This is an account of results in patent publication US7153855B2, “Pyrazolopyridinyl pyrimidine therapeutic compounds” (SmithKline Beecham Corporation, priority 2001, dated 2006).

Where only a bound is given, the exact number is not on record here.

In one assay the test system is HSV-1. Kind of assay: HSV-1 infection of Vero 76 cells, viral DNA detected by hybridization capture (chemiluminescence). The class given is cell-based. As to conditions: Human alphaherpesvirus 1, Vero 76. An excerpt:
In the following example, “MEM” means Minimal Essential Media; “FBS” means Fetal Bovine Serum; “NP40” and “Igepal” are detergents; “MOI” means Multiplicity of Infection; “NaOH” means sodium hydroxide; “MgCl2” means magnesium chloride; “dATP” means deoxyadenosine 5′ triphosphate; “dUTP” means deoxyuridine 5′ triphosphate; “dCTP” means dexoxycytidine 5′ triphosphate; “dGTP” means deoxyguanosine 5′ triphosphate; “GuSCN” means Guanidinium thiocyanate; “EDTA” means ethylenediamine tetraacetic acid; “TE” means Tris-EDTA; “SCC” means sodium chloride/sodium citrate; “APE” means a solution of ammonia acetate, ammonia phosphate, EDTA; “PBS” means phosphate buffered saline; and “HRP” means horseradish peroxidase.
Vero 76 cells were maintained in MEM with Earle's salts, L-glutamine, 8% FBS (Hyclone, A-1111-L) and 100 units/mL Penicillin-100 μg/mL Streptomycin. For assay conditions, FBS was reduced to 2%. Cells are seeded into 96-well tissue culture plates at a density of 5×10^4 cells/well after being incubated for 45 min at 37° C. in the presence of HSV-1 or HSV-2 (MOI=0.001). Test compounds are added to the wells and the plates are incubated at 37° C. for 40–48 hours. Cell lysates are prepared as follows: media was removed and replaced with 150 μL/well 0.2 N NaOH with 1% Igepal CA 630 or NP-40. Plates were incubated up to 14 days at room temperature in a humidified chamber to prevent evaporation.
For the detection probe, a gel-purified, digoxigenin-labeled, 710-bp PCR fragment of the HSV UL-15 sequence was utilized. PCR conditions included 0.5 μM primers, 180 μM dTTP, 20 μM dUTP-digoxigenin (Boehringer Mannheim 1558706), 200 μM each of dATP, dCTP, and dGTP, 1×PCR Buffer II (Perkin Elmer), 2.5 mM MgCl2, 0.025 units/μL of AmpliTaq Gold polymerase (Perkin Elmer), and 5 ng of gel-purified HSV DNA per 100 μL Extension conditions were 10 min at 95° C., followed by 30 cycles of 95° C. for 1 min, 55° C. for 30 sec, and 72° C. for 2 min. The amplification was completed with a 10-min incubation at 72° C. Primers were selected to amplify a 728 bp probe spanning a section of the HSV1 UL15 open reading frame (nucleotides 249–977). Single-stranded transcripts were purified with Promega M13 Wizard kits. The final product was mixed 1:1 with a mixture of 6 M GuSCN, 100 mM EDTA and 200 μg/mL herring sperm DNA and stored at 4° C.
The capture DNA plasmid (HSV UL13 region in pUC) was linearized by cutting with Xba I, denatured for 15 min at 95° C. and diluted immediately into Reacti-Bind DNA Coating Solution (Pierce, 17250, diluted 1:1 with TE buffer, pH 8) at 1 ng/μL 75 μL/well were added to Corning (#3922 or 9690) white 96-well plates and incubated at room temperature for at least 4 hrs before washing twice with 300 μL/well 0.2×SSC/0.05% Tween-20 (SSC/T buffer). The plates were then incubated overnight at room temperature with 150 μL/well 0.2 N NaOH, 1% IGEPAL and 10 μg/mL herring sperm DNA.
Twenty-seven (27) μL of cell lysate was combined with 45 μL of hybridization solution (final concentration: 3M GuSCN, 50 mM EDTA, 100 μg/ml salmon sperm DNA, 5×Denhardt's solution, 0.25×APE, and 5 ng of the digoxigenin-labeled detection probe). APE is 1.5 M NH4-acetate, 0.15 M NH4H2 phosphate, and 5 mM EDTA adjusted to pH 6.0. Mineral oil (50 μL) was added to prevent evaporation. The hybridization plates were incubated at 95° C. for 10 minutes to denature the DNA, then incubated at 42° C. overnight. The wells were washed 6× with 300 μL/well SSC/T buffer then incubated with 75 μL/well anti-digoxigenin-HRP-conjugated antibody (Boehringer Mannheim 1207733, 1:5000 in TE) for 30 min at room temperature. The wells were washed 6× with 300 μL/well with PBS/0.05% Tween-20 before 75 μL/well SuperSignal LBA substrate (Pierce) was added. The plates were incubated at room temperature for 30 minutes and chemiluminescence was measured in a Wallac Victor reader.
The following results were obtained for HSV-1.
Compound `CCOP(=O)(NCCCCNc1cccc2c(-c3ccnc(NC4CCCC4)n3)c(-c3ccc(OC)cc3)nn12)OCC` [Example 89, Diethyl 4-{[3-[2-(cyclopentylamino)pyrimidin-4-yl]-2-(4-methoxyphenyl)pyrazolo[1,5-a]pyridin-7-yl]amino}butylamidophosphate] returned an IC50 of 800 nM.

Still in this assay, the particulars now being: Human alphaherpesvirus 1; HSV-1 in Vero 76 cells, MOI=0.001, compounds incubated 40–48 hours at 37° C.; read-out: IC50.
On to `CCCCNc1nccc(-c2c(-c3ccc(Nc4ccccc4)cc3)nn3c(N(CCCC)c4ccccc4)cccc23)n1` [Example 20, 2-(4-Anilinophenyl)-N-butyl-3-[2-(butylamino)-4-pyrimidinyl]-N-phenylpyrazolo[1,5-a]pyridin-7-amine], for which the IC50 is 16000 nM.

Regarding `c1cc(-c2ccncc2)cc(-c2nn3c(NC4CCCC4)cccc3c2-c2ccnc(NC3CCCC3)n2)c1` [Example 31, N-Cyclopentyl-3-[2-(cyclopentylamino)-4-pyrimidinyl]-2-[3-(4-pyridinyl)phenyl]pyrazolo[1,5-a]pyridin-7-amine], the 50% inhibitory concentration (IC50) amounted to 2000 nM.

As to `Oc1ccc(-c2nn3c(NC4CCCC4)cccc3c2-c2ccnc(NC3CCCC3)n2)cc1` [Example 4, 4-{7-(Cyclopentylamino)-3-[2-(cyclopentylamino)-4-pyrimidinyl]pyrazolo-[1,5-a]pyridin-2-yl}phenol], the IC50 turned out to be 1000 nM. With `Oc1ccc(-c2nn3c(NC4CC4)cccc3c2-c2ccnc(NC3CC3)n2)cc1` [Example 69, 4-{7-(Cyclopropylamino)-3-[2-(cyclopropylamino)-4-pyrimidinyl]-pyrazolo[1,5-a]pyridin-2-yl}phenol], the IC50 was found to be 2300 nM. Still for that read-out and setting: the value for `c1ccc(-c2nn3c(NC4CCCC4)cccc3c2-c2ccnc(NC3CCCC3)n2)cc1` [Example 38, N-Cyclopentyl-3-[2-(cyclopentylamino)-4-pyrimidinyl]-2-phenylpyrazolo-[1,5-a]pyridin-7-amine] was 300 nM; that for `Cc1cccc(-c2nn3c(NC4CCCC4)cccc3c2-c2ccnc(NC3CCCC3)n2)c1` [Example 46, N-Cyclopentyl-3-[2-(cyclopentylamino)-4-pyrimidinyl]-2-(3-methylphenyl)pyrazolo[1,5-a]pyridin-7-amine] was 200 nM. On the same count and under the same terms, the value for `CCCCNc1nccc(-c2c(-c3ccc(N(CC4CC4)CC4CC4)cc3)nn3c(NCCCC)cccc23)n1` [Example 21, 2-{4-[Bis(cyclopropylmethyl)amino]phenyl}-N-butyl-3-[2-(butylamino)-4-pyrimidinyl]pyrazolo[1,5-a]pyridin-7-amine] was 15000 nM; that for `Nc1nccc(-c2c(-c3cccc(Br)c3)nn3c(NC4CCCC4)cccc23)n1` [Example 27, N-[3-(2-Amino-4-pyrimidinyl)-2-(3-bromophenyl)pyrazolo[1,5-a]pyridin-7-yl]-N-cyclopentylamine] was 1500 nM.

On to `COc1ccc(-c2nn3c(NCCN)cccc3c2-c2ccnc(NC3CCCC3)n2)cc1` [Example 96, N′-[3-[2-(Cyclopentylamino)-4-pyrimidinyl]-2-(4-methoxyphenyl)pyrazolo[1,5-a]pyridin-7-yl]-1,2-ethanediamine], for which the IC50 turned out to be 1100 nM. Regarding `Nc1nccc(-c2c(-c3cccc(Br)c3)nn3c(N4CCCC4)cccc23)n1` [Example 28, 4-[2-(3-Bromophenyl)-7-(1-pyrrolidinyl)pyrazolo[1,5-a]pyridin-3-yl]-2-pyrimidinamine], the IC50 came to 5000 nM. The same measure, in the same setting: then `Nc1cccc(-c2nn3c(NC4CCCC4)cccc3c2-c2ccnc(NC3CCCC3)n2)c1` [Example 34, 2-(3-Aminophenyl)-N-cyclopentyl-3-[2-(cyclopentylamino)-4-pyrimidinyl]pyrazolo[1,5-a]pyridin-7-amine], with 600 nM. Regarding `C=C(C)c1ccc(-c2nn3c(NCCCC)cccc3c2-c2ccnc(NCCCC)n2)cc1` [Example 18, N-Butyl-3-[2-(butylamino)-4-pyrimidinyl]-2-(4-isopropenylphenyl)-pyrazolo[1,5-a]pyridin-7-amine], the IC50 was determined as 9000 nM. `c1ccc(Oc2ccc(-c3nn4c(NC5CCCC5)cccc4c3-c3ccnc(NC4CCCC4)n3)cc2)cc1` [Example 13, N-Cyclopentyl-3-[2-(cyclopentylamino)-4-pyrimidinyl]-2-(4-phenoxyphenyl)pyrazolo[1,5-a]pyridin-7-amine]: the IC50 was 1000 nM.

On to `Nc1cccc(-c2nn3c(N4CCCC4)cccc3c2-c2ccnc(NC3CCCC3)n2)c1` [Example 37, 4-[2-(3-Aminophenyl)-7-(1-pyrrolidinyl)pyrazolo[1,5-a]pyridin-3-yl]-N-cylopentyl-2-pyrimidinamine], for which the IC50 turned out to be 3000 nM. Consider `CCCCNc1nccc(-c2c(-c3ccc(N(C)C)cc3)nn3c(NCCCC)cccc23)n1` [Example 23, N-Butyl-3-[2-(butylamino)-4-pyrimidinyl]-2-[4-(dimethylamino)phenyl]-pyrazolo[1,5-a]pyridin-7-amine], for which the IC50 was 2000 nM. For the compound `c1cc(NC2CCCC2)n2nc(-c3ccc(OCC4CCC4)cc3)c(-c3ccnc(NC4CCCC4)n3)c2c1` [Example 12, 2-[4-(Cyclobutylmethoxy)phenyl]-N-cyclopentyl-3-[2-(cyclopentylamino)-4-pyrimidinyl]pyrazolo[1,5-a]pyridin-7-amine], the IC50 stood at 2000 nM. Regarding `COc1ccc(-c2nn3c(NCCCCNC(=O)CCCC[C@@H]4SC[C@@H]5NC(=O)N[C@@H]54)cccc3c2-c2ccnc(NC3CCCC3)n2)cc1` [Example 82, 5-[(3aS,4S,6aR)-2-Oxohexahydro-1H-thieno[3,4-d]imidazol-4-yl]-N-(4-{[3-[2-(cyclopentylamino)pyrimidin-4-yl]-2-(4-methoxyphenyl)pyrazolo[1,5-a]pyridin-7-yl]amino}butyl)pentanamide], the IC50 turned out to be 400 nM. On the same count and under the same terms, then `COCCNc1cccc2c(-c3ccnc(NC4CCCC4)n3)c(-c3ccc(OC)cc3)nn12` [Example 62, 3-[2-(Cyclopentylamino)-4-pyrimidinyl]-N-(2-methoxyethyl)-2-(4-methoxyphenyl)pyrazolo[1,5-a]pyridin-7-amine], with 100 nM; and `COc1cccc(-c2nn3c(NC(C)C)cccc3c2-c2ccnc(NC3CCCC3)n2)c1` [Example 52, 3-[2-(Cyclopentylamino)-4-pyrimidinyl]-N-isopropyl-2-(3-methoxyphenyl)pyrazolo[1,5-a]pyridin-7-amine], with 560 nM; and `Cc1cccc(-c2nn3c(NC4CCCC4)cccc3c2-c2nc(NC3CCCC3)nc(C)c2C)c1` [Example 48, N-cyclopentyl-3-[2-(cyclopentylamino)-5,6-dimethyl-4-pyrimidinyl]-2-(3-methylphenyl)pyrazolo[1,5-a]pyridin-7-amine], with more than 40000 nM. Turning to `Oc1ccc(-c2nn3c(N4CCCC4)cccc3c2-c2ccnc(NC3CCCC3)n2)cc1` [Example 5, 4-[3-[2-(Cyclopentylamino)-4-pyrimidinyl]-7-(1-pyrrolidinyl)pyrazolo[1,5-a]pyridin-2-yl]phenol], the IC50 was found to be 2000 nM. Same read-out and setting: then `COc1cccc(-c2nn3c(NC4CCCC4)cccc3c2-c2ccnc(NC3CCCC3)n2)c1` [Example 51, N-Cyclopentyl-3-[2-(cyclopentylamino)-4-pyrimidinyl]-2-(3-methoxyphenyl)pyrazolo[1,5-a]pyridin-7-amine], with 210 nM.
